For data set [1], the system named is inducible nitric oxide synthase (iNOS). The experiment in a line: iNOS suppression / NO assay in LPS-stimulated macrophages or RAW264.7 cells (Griess reaction). It is filed as cell-based, mouse. To be noted: at 100 nM; comparators of Table 3. The method, boiled down: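 RAW264.7 cells or macrophages incubated with rexinoids (300 nM, or 100 nM/300 nM, or a concentration series) and stimulated with 1–2 ng/ml LPS for 24 h. Nitric oxide released into medium measured by Griess reaction; values given as percent of LPS-stimulated control, % inhibition, or IC50.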
For orientation: The Griess reaction detects nitrite, a stable product of nitric oxide.

Data set [2] has as its system PD-L1. The experiment in a line: PD-L1 in THP-1 cells stimulated with SK-BR-3 conditioned media (flow cytometry). In kind it is cell-based, human. Conditions: 24 hours. The procedure: THP-1 (ATCC) cells were cultured in RPMI supplemented with 5% FBS, and SK-BR-3 (ATCC) cells were cultured in DMEM supplemented with 10% FBS. THP-1 cells were cultured at 50000/well in a 6 well plate for 24 hours to determine PD-L1 levels with conditioned media from SK-BR-3 cells. Culturing SK-BR-3 cells at 60-70% confluence for 24 hours generated conditioned media; media was then collected and centrifuged at 900 rpm for 5 minutes to eliminate any cell debris. THP-1 cells were then plated at 100000 cells/well with the conditioned media, LG268 was added simultaneously.
(§1) For PD-L1 staining, RAW 264.7 cells were plated at 25000 cells/ml in 6 well plates for 24 hours before adding conditioned media from E18-14C-27 and LG268. RAW 264.7 cells were cultured for additional 24 hours with E18-14C-27 conditioned media and LG268. […] THP-1 cells were stained and analyzed for the levels of PD-L1 following the same protocol.

The subject of another data set is FOXP3. The experiment in a line: FOXP3 mRNA in isolated spleen CD4 T cells skewed towards Tregs. Conditions: LG268 added for 4 days.
For another data set, the system named is E18-14C-27C cancer cells. In words: PD-1 and PD-L1 expression in E18-14C-27C cancer cells. It is filed as cell-based, mouse. Conditions: 72 hours. As for the experimental part:
(§2) RAW 264.7 mouse macrophage-like (ATCC) and E18-14C-27 (Wu et al., Cancer Res. 62, 6376-6380 (2002)) cells were cultured in DMEM supplemented with 10% fetal bovine serum (FBS). RAW 264.7 cells were cultured at 50000/well in a 6 well plate for 24 hours to determine PD-L1 levels. E18-14C-27 cells were cultured for 72 hours in the presence of LG268 for protein levels. Conditioned media was collected from E18-14C-27 at 60-70% confluence for 24 hours; media was then collected and centrifuged at 900 rpm for 5 minutes to eliminate any cell debris.
To determine if these changes occurred in the tumor cells or in the macrophages, E18-14C-27C and RAW 264.7 cell lines were treated with LG268. […] Similar observations were made in human THP-1 monocytic cells stimulated with conditioned media from human HER2 positive SK-BR-3 breast cancer cells and treated with LG268 or bexarotene for 24 hours (FIG. 5E-5F).

The next data set concerns CD3 T cells. In words: CD8 subpopulations in isolated spleen CD3 T cells (flow cytometry). In kind it is cell-based, mouse. To be noted: anti-CD3ε, 3 days. As for the experimental part: Cells were cultured for a total of 3 days.
Yellow zombie (Biolegend) staining was used to exclude dead cells.
For orientation: In flow cytometry, cells or beads pass a laser one at a time.

The test system of another data set is CD206. The experiment in a line: CD206 expression in RAW 264.7 cells stimulated with E18-14C-27 conditioned media (immunoblot). It is filed as cell-based, mouse. Conditions: increasing concentrations, 24 hours. The procedure: as §2
To explore whether the expression of CD206 in macrophages is dependent on stimulatory factors from tumor cells (e.g., tumor educated macrophages), conditioned media was collected from an established cell line (E18-14C-27 cells) derived from a mammary tumor of an MMTV-Neu mouse. When RAW 264.7 (macrophage-like) cells were stimulated with conditioned media from the E18-14C-27 cancer cells and treated with increasing concentrations of LG268 for 24 hours, a decrease in the expression of CD206 was observed by immunoblotting (FIG. 2E).

Data set [3] is described as follows: Toxicity in A/J mice with lung tumors fed rexinoids plus carboplatin and paclitaxel. In kind it is in vivo. Conditions: 100 mg/kg diet, 7 weeks. The procedure:
A/J mice with lung tumors (detected by ultrasound) were fed rexinoids in their diets (at 100 mg/kg diet) and injected twice every other week with carboplatin and paclitaxel.

The subject of data set [4] is PD-L1. The experiment in a line: PD-L1 induction in macrophages or RAW264.7 cells with cancer cell conditioned media (flow cytometry). In kind it is cell-based, mouse. To be noted: for PD-L1 Levels: Table 4, Control 43.3. As for the experimental part:
as §2, §1
Inhibitory receptors on lymphocytes such as PD-1 (programmed cell death protein 1) are important immune checkpoints that protect against autoimmunity as the interaction between PD-L1 (ligand) and the PD-1 receptor expressed on immune cells suppresses T cell activity. Immuno-oncology is revolutionizing cancer treatment, and enormous research efforts are ongoing to identify drugs that upregulate PD-L1 so that they can be combined with checkpoint inhibitors to boost efficacy. Macrophages or RAW264.7 cells are treated with conditioned media from cancer cells and rexinoids, and PD-L1 expression determined by flow cytometry. Higher numbers indicate better upregulation of PD-LI.
Using methods described herein, macrophages or RAW264.7 cells were treated with selected rexinoids and with conditioned media from cancer cells. Structures of the rexinoids are shown below.
PD-L1 expression was determined by flow cytometry.

A further data set has as its system RAR receptor. Conditions: cited from earlier work.
In the next data set the target is RXR. To be noted: read-out: Kd for RXR; cited from earlier work.

The source of these data is US20220089540A1 (Board of Trustees of Michigan State University, priority 2019, published 2022).

Broadly, the Kd is the free concentration of one partner at which half of the binding sites on the other are occupied at equilibrium, for simple one-to-one binding.

`Cc1cc2c(cc1C1(c3ccc(C(=O)O)cn3)CC1)C(C)(C)CCC2(C)C` [LG268]: in data set [1], the iNOS was […]. In the data set with PD-L1 [2], the “PD-L1 levels in THP-1 human macrophages” value is listed as “increases”. The “reduction of FOXP3 mRNA expression vs vehicle control” value in the data set with FOXP3 is on record as 40%. Moreover, the PD-L1 expression result in the data set on E18-14C-27C cancer cells (flow cytometry) is “did not change”. Also, in the data set with E18-14C-27C cancer cells (western blot), the PD-1 expression entry was “decreased”. Also, in the data set with CD3 T cells, the “CD8 naive and central memory cells” value was “increased percentage”. Also, the CD206 expression result in the data set with CD206 is listed as “decrease”. For the same compound, in [3], the “toxicity findings (liver, triglycerides, cholesterol, fur)” value was “hepatomegaly, with elevated triglycerides and cholesterol”. The “PD-L1 Levels” value with PD-L1 [4] (100 nM) stood at 66.7; in the data set with PD-L1 [4] (1000 nM) it was 77. For the same compound, the “PD-L1 levels in RAW 264.7 cells with E18-14C-27C conditioned media” value in the data set with PD-L1 [4] (24 hours) is “increased levels”. In addition, the “binding to the RAR receptor” value in the data set on RAR receptor is reported as “does not bind”. At RXR, the Kd was […].
